Key:
[1] = tested on: human skin fibroblasts (WS1); assay: Cell proliferation of normal cells, crystal violet method; type: cell-based; details: at the indicated concentrations (not given); FIG. 17
Description: The compound according to the invention, and in particular the synthetic quercetin derivatives described and illustrated herein were investigated in vitro by using human tumour cells and assessing their impact on the tumour proliferative capacity, with regard to the tumours described above. In particular, the following human tumour cell lines were assessed experimentally: 1) HCT116, colon adenocarcinoma cells; 2) H1299, lung adenocarcinoma cells; 3) A375, melanoma cells, and 4) A431, squamous skin cell carcinoma; 5) 786-0, renal carcinoma cells; 6) PC3, prostate carcinoma cells; 7) BT549, mammary carcinoma cells; 8) CAL27, tongue carcinoma cells (belonging to the head-and-neck carcinomas); 9) HepG2, hepatocellular carcinoma cells; 10) PANC-1, pancreas carcinoma cells; 11) T24, bladder carcinoma cells; 12) OVCAR-3, ovarian carcinoma cells. In addition, a normal human cell line, WS1 (skin fibroblasts) was also treated with the novel synthetic compounds. Cell proliferation was quantified by the crystal violet method with a spectrophotometer. In short, after acquiring serial images (0, 24 and 48 hrs) with the EVOS XL Cell Imaging System microscope (Thermo Fisher Scientific), the cells imaged at 48 hrs were fixed with paraformaldehyde (4%) and stained with Crystal Violet (1%). Then, the specific absorbance (λ=590 nm) at 48 hrs was measured with a spectrophotometer (Infinite®200 PRO, Tecan). Data analysis was carried out by using ad-hoc Excel files for graphical representation and statistical processing (t-test). […] This tool allows cell growth to be monitored from electrical impedance-derived quantitative values (the so-called Cell Index) measured by tiny electrodes located at the base of the culture wells. Proliferation is monitored for several days (5-7) by setting a Cell Index per minute measure on the instrument. The data are analysed by processing various parameters calculated by the dedicated software, such as the cell duplication time, the slope and the Max Cell Index.

[2] = tested on: human ovarian carcinoma cells (OVCAR-3); assay: Cell proliferation, crystal violet method; type: cell-based; details: 60 μM; FIG. 11a, 11b
Description: The compound according to the invention, and in particular the synthetic quercetin derivatives described and illustrated herein were investigated in vitro by using human tumour cells and assessing their impact on the tumour proliferative capacity, with regard to the tumours described above. In particular, the following human tumour cell lines were assessed experimentally: 1) HCT116, colon adenocarcinoma cells; 2) H1299, lung adenocarcinoma cells; 3) A375, melanoma cells, and 4) A431, squamous skin cell carcinoma; 5) 786-0, renal carcinoma cells; 6) PC3, prostate carcinoma cells; 7) BT549, mammary carcinoma cells; 8) CAL27, tongue carcinoma cells (belonging to the head-and-neck carcinomas); 9) HepG2, hepatocellular carcinoma cells; 10) PANC-1, pancreas carcinoma cells; 11) T24, bladder carcinoma cells; 12) OVCAR-3, ovarian carcinoma cells. In addition, a normal human cell line, WS1 (skin fibroblasts) was also treated with the novel synthetic compounds.
Cell proliferation was quantified by the crystal violet method with a spectrophotometer. In short, after acquiring serial images (0, 24 and 48 hrs) with the EVOS XL Cell Imaging System microscope (Thermo Fisher Scientific), the cells imaged at 48 hrs were fixed with paraformaldehyde (4%) and stained with Crystal Violet (1%). Then, the specific absorbance (λ=590 nm) at 48 hrs was measured with a spectrophotometer (Infinite®200 PRO, Tecan). Data analysis was carried out by using ad-hoc Excel files for graphical representation and statistical processing (t-test). Moreover, the results obtained with Crystal Violet were confirmed by using another cell proliferation assessment method based on the real time cellular analyzer XCELLigence RTCA DP (ACEA Biosciences, Inc.). This tool allows cell growth to be monitored from electrical impedance-derived quantitative values (the so-called Cell Index) measured by tiny electrodes located at the base of the culture wells. Proliferation is monitored for several days (5-7) by setting a Cell Index per minute measure on the instrument. The data are analysed by processing various parameters calculated by the dedicated software, such as the cell duplication time, the slope and the Max Cell Index.
Cell proliferation was quantitated spectrophotometrically by the crystal violet method.

SCC cells (A431) = assay: Cell proliferation, crystal violet method; type: cell-based, human; details: 90 μM; FIG. 2a, 2b
Description: (§1) The compound according to the invention, and in particular the synthetic quercetin derivatives described and illustrated herein were investigated in vitro by using human tumour cells and assessing their impact on the tumour proliferative capacity, with regard to the tumours described above. In particular, the following human tumour cell lines were assessed experimentally: 1) HCT116, colon adenocarcinoma cells; 2) H1299, lung adenocarcinoma cells; 3) A375, melanoma cells, and 4) A431, squamous skin cell carcinoma; 5) 786-0, renal carcinoma cells; 6) PC3, prostate carcinoma cells; 7) BT549, mammary carcinoma cells; 8) CAL27, tongue carcinoma cells (belonging to the head-and-neck carcinomas); 9) HepG2, hepatocellular carcinoma cells; 10) PANC-1, pancreas carcinoma cells; 11) T24, bladder carcinoma cells; 12) OVCAR-3, ovarian carcinoma cells. In addition, a normal human cell line, WS1 (skin fibroblasts) was also treated with the novel synthetic compounds. Cell proliferation was quantified by the crystal violet method with a spectrophotometer. In short, after acquiring serial images (0, 24 and 48 hrs) with the EVOS XL Cell Imaging System microscope (Thermo Fisher Scientific), the cells imaged at 48 hrs were fixed with paraformaldehyde (4%) and stained with Crystal Violet (1%). Then, the specific absorbance (λ=590 nm) at 48 hrs was measured with a spectrophotometer (Infinite®200 PRO, Tecan). Data analysis was carried out by using ad-hoc Excel files for graphical representation and statistical processing (t-test). Moreover, the results obtained with Crystal Violet were confirmed by using another cell proliferation assessment method based on the real time cellular analyzer XCELLigence RTCA DP (ACEA Biosciences, Inc.). This tool allows cell growth to be monitored from electrical impedance-derived quantitative values (the so-called Cell Index) measured by tiny electrodes located at the base of the culture wells. Proliferation is monitored for several days (5-7) by setting a Cell Index per minute measure on the instrument. The data are analysed by processing various parameters calculated by the dedicated software, such as the cell duplication time, the slope and the Max Cell Index. […] Cell proliferation was quantitated spectrophotometrically by the crystal violet method.

[3] = tested on: human bladder carcinoma cells (T24); assay: Cell proliferation, crystal violet method; type: cell-based; details: 80 μM; FIG. 10a, 10b
Description: as §1

[4] = tested on: human pancreatic carcinoma cells (PANC-1); assay: Cell proliferation, crystal violet method; type: cell-based; details: 80 μM; FIG. 9a, 9b
Description: as §1

[5] = tested on: human prostate carcinoma cells (PC3); assay: Cell proliferation, crystal violet method; type: cell-based; details: 80 μM; FIG. 5a, 5b
Description: as §1

[6] = tested on: human renal carcinoma cells (786-0); assay: Cell proliferation, crystal violet method; type: cell-based; details: 80 μM; FIG. 4a, 4b
Description: as §1

[7] = tested on: human melanoma cells (A375); assay: Cell cycle progression, propidium iodide method, cytofluorimeter; type: cell-based; details: 24 hrs; at the respective anti-proliferative IC50s; FIG. 19
Description: Progression through the tumour cell cycle was assessed by the propidium iodide method and quantification of the cell DNA content with a cytofluorimeter. Briefly, after treatment (in duplicate) with the test compounds (24 hrs), the tumour cells were washed (with PBS), detached with trypsin-EDTA and pelleted by centrifugation (125 g for 6 min). The cells were then fixed in ethanol (70%) and stored in the freezer (−20° C.) for 1-3 days. After further washing (PBS) and treatment with RNAse (50 ug/ml), the cells were contacted (on ice in the dark; 30 min) with propidium iodide (50 μg/ml). FL2 and FL3 cytofluorimeter readings analysed approximately 50,000 cells (1 μl/second) per sample. Statistical analysis and graphical representation were performed by using t-tests and preset Excel property files.

[8] = tested on: human colon carcinoma cells (HCT116); assay: Intracellular ROS levels, DCFH2-DA probe; type: cell-based; details: 2 hrs of treatment; at the respective anti-proliferative IC50s; DCF fluorescence in A.U.; FIG. 22 left
Description: Intracellular ROS levels were measured in tumour cells by using the probe 2,7-dichlorodihydrofluorescein diacetate (DCFH2-DA) and a fluorescence spectrophotometer. DCFH2-DA diffuses readily through the cell membrane into the cytosolic space of the cell where it is hydrolyzed by intracellular esterases into the non-permeable DCFH2 product. DCFH2 oxidation by intracellular ROS (mainly H2O2, HO·, ROO·, NO· and ONOO) results in the production of intracellular fluorescent DCF, whose concentration is directly proportional to the levels of ROS in the cell. […] All the experiments were repeated at least 3 times. Data analysis was carried out with GraphPad Prism 6 for graphical representation and statistical processing (1-way ANOVA test).

Compound | proliferation of normal human skin fibroblasts (WS1) vs vehicle control [1] | OVCAR-3 cell growth vs vehicle control [2] | A431 cell growth vs vehicle control (SCC cells (A431)) | T24 cell growth vs vehicle control [3] | PANC-1 cell growth vs vehicle control [4] | PC3 cell growth vs vehicle control [5] | 786-0 cell growth vs vehicle control [6] | halt of A375 tumour cells in S and/or G2 of the cell cycle [7] | intracellular ROS levels in HCT116 cells [8]
O=c1cc(-c2ccc(O)cc2)oc2cc(O)cc(O)c12 [apigenin] | significantly inhibits |  |  |  |  |  |  |  | 
O=c1c(O)c(-c2ccc(O)c(O)c2)oc2cc(O)cc(O)c12 [quercetin, Quercetin, reference compound] | do not disrupt | has no effect | has no effect | has no effect | has no effect | modest anti-proliferative effects | has no effect | significantly halt | has no effect

— US12059400B2, “Medical compound” (VERA SALUS RICERCA S.R.L., priority 2017, dated 2024)
